Test results: publication PMC7066280 (Investigational New Drugs, 2019)
Read-outs that look alike come from different tables or passages of the source.

Assays:
[1] = Ivosidenib plasma PK after a single oral dose (day −3, dose escalation), LC-MS/MS, non-compartmental; assay type: in vivo; conditions: human; for AUC(0-t): read-out: AUC0-72h
Method: In the dose escalation portion, patients with 1) glioma and 2) non-glioma solid tumors were enrolled into sequential cohorts using a standard 3 + 3 design. […] At least 3 patients in each cohort also received a single dose 3 days prior to the start of multiple dosing (i.e., day −3).
These samples were optional for any further patients enrolled in these cohorts. Further blood samples were collected from all patients up to 10 h postdose on cycle 1, day 15 and cycle 2, day 1. A subset of samples was also used for evaluation of plasma 4β-hydroxycholesterol (4β-OHC) and 4β-OHC:cholesterol ratios. Blood samples for assessment of 2-HG only were also collected at screening.
(§1) Plasma ivosidenib was measured using two validated liquid chromatography-tandem mass spectrometry (LC-MS/MS) methods. The lower limit of quantification (LLOQ) was 1.00 ng/mL (low-range assay) or 50.0 ng/mL (high-range assay). […] Plasma 2-HG concentrations were measured using a qualified LC-MS/MS method with an LLOQ of 30.0 ng/mL. Concentrations of 2-HG in tumor biopsy samples were quantified using qualified LC-MS/MS methods with an LLOQ of 7.5 μg/g for brain tumor homogenate, 100 ng/g for liver tumor homogenate (low-range assay), and 30 μg/g for liver tumor homogenate (high-range assay). Plasma 4β-OHC and cholesterol were measured using a validated LC-MS/MS method. The LLOQ was 5 ng/mL for 4β-OHC and 25 μg/mL for cholesterol in human plasma.
(§2) PK parameters included area under the plasma concentration-time curve (AUC), maximum plasma concentration (Cmax), time to maximum plasma concentration (Tmax), terminal elimination half-life (t1/2), and apparent oral clearance at steady state (CLss/F). Accumulation ratio (Racc), based on Cmax and AUC, was also assessed during the dose escalation portion. PD (2-HG) parameters included baseline-effect value, area under the effect concentration-time curve (AUEC0-10h for the dose escalation portion, or AUEC0-8h for the dose escalation and expansion portions), percent change from baseline in AUEC (%BAUEC0-10h for the escalation portion, or %BAUEC0-8h for the dose escalation and expansion portions), average plasma concentration (Cavg), and percent inhibition for Cavg (%BCavg). For the dose escalation portion, the time-matched ratios of 4β-OHC to cholesterol were calculated.

[2] = Ivosidenib plasma PK after single and multiple 500 mg QD doses (dose expansion); assay type: in vivo, human
Method: Additional predose samples were taken on cycle 1, day 8; cycle 1, day 15; cycle 3, day 1; and end of treatment.
as §1, §2

[3] = po, 100 mg, glioma, single oral 100 mg, day −3, geometric mean (geometric CV%)
[4] = po, 100 mg, non-glioma solid tumors, single oral 100 mg, day −3, geometric mean (geometric CV%)
[5] = po, 300 mg, glioma, single oral 300 mg, day −3, geometric mean (geometric CV%)
[6] = po, 300 mg, non-glioma solid tumors, single oral 300 mg, day −3, geometric mean (geometric CV%)
[7] = po, 400 mg, non-glioma solid tumors, single oral 400 mg, day −3, geometric mean (geometric CV%)
[8] = po, 500 mg, glioma, single oral 500 mg, day −3, geometric mean (geometric CV%)
[9] = po, 500 mg, non-glioma solid tumors, single oral 500 mg, day −3, geometric mean (geometric CV%)
[10] = po, 600 mg, glioma, single oral 600 mg, day −3, geometric mean (geometric CV%)
[11] = po, 800 mg, non-glioma solid tumors, single oral 800 mg, day −3, geometric mean (geometric CV%)
[12] = po, 900 mg, glioma, single oral 900 mg, day −3, geometric mean (geometric CV%)
[13] = po, 1200 mg, non-glioma solid tumors, single oral 1200 mg, day −3, geometric mean (geometric CV%)

In the case of `N#Cc1ccnc(N2C(=O)CC[C@H]2C(=O)N(c2cncc(F)c2)[C@H](C(=O)NC2CC(F)(F)C2)c2ccccc2Cl)c1` [ivosidenib], the half-life ([1]; oral, 500 mg, single dose of 500 mg, patients with cholangiocarcinoma/chondrosarcoma, read-out: mean t1/2 (converted)) is reported as 64 h, the half-life ([1]; oral, 500 mg, single dose of 500 mg, patients with glioma, read-out: mean t1/2 (converted)) is reported as 56 h and the half-life ([1]; oral, after single dose, range of means across doses and tumor types, read-out: terminal half-life (mean)) is reported as 40 to 102 h. It also gave a Tmax ([1]; oral, single dose day −3, range across all tumor types, read-out: median Tmax) of 2 to 6 h, a half-life ([1]; oral, single dose, patients with glioma, range across doses, read-out: mean t1/2 (converted)) of 40 to 56 h and a half-life ([1]; oral, single dose, patients with non-glioma solid tumors, range across doses, read-out: mean t1/2 (converted)) of 62 to 102 h. The Cmax [1, 3] was 1270 ng/mL, the AUC(0-t) [1, 3] was 32800 ng·h/mL and the half-life ([1]; po, 100 mg, glioma, single oral 100 mg, day −3, geometric mean (geometric CV%), read-out: t1/2 (converted)) was 55.5 h. The Tmax ([1]; po, 100 mg, glioma, single oral 100 mg, day −3, median (minimum; maximum), read-out: Tmax) was 2.03 h, the Cmax [1, 4] was 1400 ng/mL and the AUC(0-t) [1, 4] was 34800 ng·h/mL. The half-life ([1]; po, 100 mg, non-glioma solid tumors, single oral 100 mg, day −3, geometric mean (geometric CV%), read-out: t1/2 (converted)) was 102 h, the Tmax ([1]; po, 100 mg, non-glioma solid tumors, single oral 100 mg, day −3, median (minimum; maximum), read-out: Tmax) was 3 h and the Cmax [1, 5] was 2300 ng/mL. It also gave an AUC(0-t) [1, 5] of 62500 ng·h/mL, a half-life ([1]; po, 300 mg, glioma, single oral 300 mg, day −3, geometric mean (geometric CV%), read-out: t1/2 (converted)) of 53.6 h and a Tmax ([1]; po, 300 mg, glioma, single oral 300 mg, day −3, median (minimum; maximum), read-out: Tmax) of 4 h. It also gave a Cmax [1, 6] of 2350 ng/mL, an AUC(0-t) [1, 6] of 71600 ng·h/mL and a half-life ([1]; po, 300 mg, non-glioma solid tumors, single oral 300 mg, day −3, geometric mean (geometric CV%), read-out: t1/2 (converted)) of 77.9 h. It also gave a Tmax ([1]; po, 300 mg, non-glioma solid tumors, single oral 300 mg, day −3, median (minimum; maximum), read-out: Tmax) of 4.17 h, a Cmax [1, 7] of 4230 ng/mL and an AUC(0-t) [1, 7] of 141000 ng·h/mL. For the same molecule, the half-life ([1]; po, 400 mg, non-glioma solid tumors, single oral 400 mg, day −3, geometric mean (geometric CV%), read-out: t1/2 (converted)) was 77.3 h, the Tmax ([1]; po, 400 mg, non-glioma solid tumors, single oral 400 mg, day −3, median (minimum; maximum), read-out: Tmax) was 3 h and the Cmax [1, 8] was 2370 ng/mL. For the same molecule, the AUC(0-t) [1, 8] was 81900 ng·h/mL, the half-life ([1]; po, 500 mg, glioma, single oral 500 mg, day −3, geometric mean (geometric CV%), read-out: t1/2 (converted)) was 56.4 h and the Tmax ([1]; po, 500 mg, glioma, single oral 500 mg, day −3, median (minimum; maximum), read-out: Tmax) was 3.54 h. For the same molecule, the Cmax [1, 9] was 3660 ng/mL, the AUC(0-t) [1, 9] was 112000 ng·h/mL and the half-life ([1]; po, 500 mg, non-glioma solid tumors, single oral 500 mg, day −3, geometric mean (geometric CV%), read-out: t1/2 (converted)) was 64.3 h. It also gave a Tmax ([1]; po, 500 mg, non-glioma solid tumors, single oral 500 mg, day −3, median (minimum; maximum), read-out: Tmax) of 2.92 h, a Cmax [1, 10] of 3380 ng/mL and an AUC(0-t) [1, 10] of 77700 ng·h/mL. The half-life ([1]; po, 600 mg, glioma, single oral 600 mg, day −3, geometric mean (geometric CV%), read-out: t1/2 (converted)) was 39.5 h, the Tmax ([1]; po, 600 mg, glioma, single oral 600 mg, day −3, median (minimum; maximum), read-out: Tmax) was 3 h and the Cmax [1, 11] was 6190 ng/mL. It also gave an AUC(0-t) [1, 11] of 179000 ng·h/mL, a half-life ([1]; po, 800 mg, non-glioma solid tumors, single oral 800 mg, day −3, geometric mean (geometric CV%), read-out: t1/2 (converted)) of 62.8 h and a Tmax ([1]; po, 800 mg, non-glioma solid tumors, single oral 800 mg, day −3, median (minimum; maximum), read-out: Tmax) of 3 h. It also gave a Cmax [1, 12] of 3440 ng/mL, an AUC(0-t) [1, 12] of 98600 ng·h/mL and a half-life ([1]; po, 900 mg, glioma, single oral 900 mg, day −3, geometric mean (geometric CV%), read-out: t1/2 (converted)) of 54.3 h. For the same molecule, the Tmax ([1]; po, 900 mg, glioma, single oral 900 mg, day −3, median (minimum; maximum), read-out: Tmax) was 2.55 h, the Cmax [1, 13] was 5990 ng/mL and the AUC(0-t) [1, 13] was 212000 ng·h/mL. For the same molecule, the half-life ([1]; po, 1200 mg, non-glioma solid tumors, single oral 1200 mg, day −3, geometric mean (geometric CV%), read-out: t1/2 (converted)) was 61.6 h, the Tmax ([1]; po, 1200 mg, non-glioma solid tumors, single oral 1200 mg, day −3, median (minimum; maximum), read-out: Tmax) was 6 h and the “Cmax at steady state lower in glioma than in cholangiocarcinoma/chondrosarcoma” value [2] was ~29%. For the same molecule, the Cmax ([2]; human, plasma, oral, 500 mg, expansion cholangiocarcinoma, cycle 1 day 1, geometric mean (geometric CV%)) was 3660 ng/mL and the AUC(0-t) ([2]; human, plasma, oral, 500 mg, expansion cholangiocarcinoma, cycle 1 day 1, geometric mean (geometric CV%), read-out: AUC0-8hr) was 19700 ng·h/mL.
